Test results: PubChem BioAssay AID2060340 (Molecular Pharmacology Branch, DTP, NCI, 2025)
pIC50: −log10 of the molar value. Several values for one entry are separate records, joined by “and”; a condition that tells them apart may be missing. Identical values can stand only once. Values belong to the molecule of their own block, whether it stands above or below them.

Test system: 349418-098-R-PDC spheroids, viability, % test/control
Assay: Anticancer human tumor 349418-098-R-PDC patient-derived lung adenocarcinoma cell line growth inhibition [IpAb]
Details: spheroids with HUVEC and MSC; for viability, T/C: stronger effect = lower value; for IC50: compound alone, run of 05/18/2021
Procedure, shortened: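 Multi-cell spheroids of 60% tumour cells, 25% HUVEC and 15% MSC in ultra-low-attachment U-bottom wells, treated with agents combined with ipatasertib or abemaciclib. Half-log ranges top out near clinical Cmax, or 10 microM when Cmax is unknown.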

[1] = curve of first compound, second compound 0.01 µM
[2] = curve of first compound, second compound 0.0316 µM
[3] = curve of first compound, second compound 0.1 µM
[4] = curve of first compound, second compound 0.316 µM
[5] = curve of first compound, second compound 1 µM
[6] = second compound 0.01 µM, first compound 0.0316 µM
[7] = second compound 0.01 µM, first compound 0.1 µM
[8] = second compound 0.01 µM, first compound 0.316 µM
[9] = second compound 0.01 µM, first compound 1 µM
[10] = second compound 0.0316 µM, first compound 0.0316 µM
[11] = second compound 0.0316 µM, first compound 0.1 µM
[12] = second compound 0.0316 µM, first compound 0.316 µM
[13] = second compound 0.0316 µM, first compound 1 µM
[14] = second compound 0.1 µM, first compound 0.0316 µM
[15] = second compound 0.1 µM, first compound 0.1 µM
[16] = second compound 0.1 µM, first compound 0.316 µM
[17] = second compound 0.1 µM, first compound 1 µM
[18] = second compound 0.316 µM, first compound 0.0316 µM
[19] = second compound 0.316 µM, first compound 0.1 µM
[20] = second compound 0.316 µM, first compound 0.316 µM
[21] = second compound 0.316 µM, first compound 1 µM
[22] = second compound 1 µM, first compound 0.0316 µM
[23] = second compound 1 µM, first compound 0.1 µM
[24] = second compound 1 µM, first compound 0.316 µM
[25] = second compound 1 µM, first compound 1 µM
[26] = second compound 0.01 µM, first compound 3.16 µM
[27] = second compound 0.01 µM, first compound 10 µM
[28] = second compound 0.0316 µM, first compound 3.16 µM
[29] = second compound 0.0316 µM, first compound 10 µM
[30] = second compound 0.1 µM, first compound 3.16 µM
[31] = second compound 0.1 µM, first compound 10 µM
[32] = second compound 0.316 µM, first compound 3.16 µM
[33] = second compound 0.316 µM, first compound 10 µM
[34] = second compound 1 µM, first compound 3.16 µM
[35] = second compound 1 µM, first compound 10 µM
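Also: spheroids exposed to compounds for 7 days.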

Structure (SMILES): COc1c(OCCCN2CCOCC2)ccc2c3n(c(=NC(=O)c4cnc(N)nc4)nc12)CCN3 + CCN1CCN(Cc2ccc(Nc3ncc(F)c(-c4cc(F)c5nc(C)n(C(C)C)c5c4)n3)nc2)CC1
pIC50 [1]: 8.25
pIC50 [2]: > 8.50
pIC50 [3]: > 8.50
pIC50 [4]: > 8.50
pIC50 [5]: > 8.50
viability, T/C (second compound 0.01 µM, first compound 0.00316 µM): 66.8%
viability, T/C (second compound 0.01 µM, first compound 0.01 µM): 32.9%
viability, T/C [6]: 9.39%
viability, T/C [7]: 6.45%
viability, T/C [8]: 6.48%
viability, T/C [9]: 6.24%
viability, T/C (second compound 0.0316 µM, first compound 0.00316 µM): 48.8%
viability, T/C (second compound 0.0316 µM, first compound 0.01 µM): 13.5%
viability, T/C [10]: 8.91%
viability, T/C [11]: 6.1%
viability, T/C [12]: 5.57%
viability, T/C [13]: 5.71%
viability, T/C (second compound 0.1 µM, first compound 0.00316 µM): 23.6%
viability, T/C (second compound 0.1 µM, first compound 0.01 µM): 14%
viability, T/C [14]: 8.06%
viability, T/C [15]: 6.16%
viability, T/C [16]: 6.04%
viability, T/C [17]: 5.83%
viability, T/C (second compound 0.316 µM, first compound 0.00316 µM): 15.9%
viability, T/C (second compound 0.316 µM, first compound 0.01 µM): 10.6%
viability, T/C [18]: 7.73%
viability, T/C [19]: 6.28%
viability, T/C [20]: 6.11%
viability, T/C [21]: 6.92%
viability, T/C (second compound 1 µM, first compound 0.00316 µM): 14%
viability, T/C (second compound 1 µM, first compound 0.01 µM): 12.3%
viability, T/C [22]: 8.15%
viability, T/C [23]: 6.25%
viability, T/C [24]: 7.04%
viability, T/C [25]: 7.33%

IC50: 350 nM [middle of 13 runs]
Structure (SMILES): CC(C)NCC(C(=O)N1CCN(c2ncnc3c2C(C)CC3O)CC1)c1ccc(Cl)cc1 (stereo not given)
viability, T/C (compound 0.1 µM): 84.9% [middle of 13 runs]
viability, T/C (compound 1 µM): 24.5% [middle of 13 runs]
viability, T/C (compound 3.16 µM): 11.8% [middle of 13 runs]
viability, T/C (compound 10 µM): 7.07% [middle of 11 runs]

IC50: 28.5 nM [middle of 12 runs]
Structure (SMILES): CCN1CCN(Cc2ccc(Nc3ncc(F)c(-c4cc(F)c5nc(C)n(C(C)C)c5c4)n3)nc2)CC1
viability, T/C (compound 0.01 µM): 74.5% [middle of 13 runs]
viability, T/C (compound 0.0316 µM): 44.2% [middle of 13 runs]
viability, T/C (compound 0.1 µM): 26.4% [middle of 13 runs]
viability, T/C (compound 0.316 µM): 19.7% [middle of 12 runs]
viability, T/C (compound 1 µM): 15.5% [middle of 13 runs]

Structure (SMILES): Cn1ncc(Cl)c1-c1cc(C(=O)NC(CN)Cc2cccc(F)c2)sc1Cl (stereo not given) + CCN1CCN(Cc2ccc(Nc3ncc(F)c(-c4cc(F)c5nc(C)n(C(C)C)c5c4)n3)nc2)CC1
pIC50 [1]: 7.30
pIC50 [2]: > 7.50
pIC50 [3]: > 7.50
pIC50 [4]: > 7.50
pIC50 [5]: > 7.50
viability, T/C [6]: 63.1%
viability, T/C [7]: 28.6%
viability, T/C [8]: 17.1%
viability, T/C [9]: 9.53%
viability, T/C [26]: 6.15%
viability, T/C [27]: 0.1%
viability, T/C [10]: 36.9%
viability, T/C [11]: 18.1%
viability, T/C [12]: 9.18%
viability, T/C [13]: 7.63%
viability, T/C [28]: 5.83%
viability, T/C [29]: 0.14%
viability, T/C [14]: 21.3%
viability, T/C [15]: 12.5%
viability, T/C [16]: 8.7%
viability, T/C [17]: 6.91%
viability, T/C [30]: 5.88%
viability, T/C [31]: 0.09%
viability, T/C [18]: 16%
viability, T/C [19]: 12.5%
viability, T/C [20]: 8.98%
viability, T/C [21]: 6.46%
viability, T/C [32]: 4.96%
viability, T/C [33]: 0.19%
viability, T/C [22]: 14%
viability, T/C [23]: 11.7%
viability, T/C [24]: 9.07%
viability, T/C [25]: 8.54%
viability, T/C [34]: 3.59%
viability, T/C [35]: 0.24%

pIC50 (curve of compound): < 7.00
Structure (SMILES): Cn1ncnc1[C@H]1c2n[nH]c(=O)c3cc(F)cc(c23)N[C@@H]1c1ccc(F)cc1
viability, T/C (compound 0.000316 µM): 96.5% and 98.7%
viability, T/C (compound 0.001 µM): 100% and 99.5%
viability, T/C (compound 0.00316 µM): 94.5% and 104%
viability, T/C (compound 0.01 µM): 94.8% and 100%
viability, T/C (compound 0.0316 µM): 83.4% and 81.5%
viability, T/C (compound 0.1 µM): 75.5% and 78.4%

Structure (SMILES): C=CCn1c(=O)c2cnc(Nc3ccc(N4CCN(C)CC4)cc3)nc2n1-c1cccc(C(C)(C)O)n1 + CCN1CCN(Cc2ccc(Nc3ncc(F)c(-c4cc(F)c5nc(C)n(C(C)C)c5c4)n3)nc2)CC1
pIC50 [1]: 6.79
pIC50 [2]: 7.00
pIC50 [3]: > 7.50
pIC50 [4]: > 7.50
pIC50 [5]: > 7.50
viability, T/C [6]: 78.5%
viability, T/C [7]: 76.4%
viability, T/C [8]: 15.1%
viability, T/C [9]: 5.22%
viability, T/C [26]: 4.65%
viability, T/C [27]: 5.36%
viability, T/C [10]: 65.1%
viability, T/C [11]: 50.2%
viability, T/C [12]: 13.4%
viability, T/C [13]: 6.17%
viability, T/C [28]: 4.95%
viability, T/C [29]: 4.75%
viability, T/C [14]: 38.4%
viability, T/C [15]: 30%
viability, T/C [16]: 13.3%
viability, T/C [17]: 7%
viability, T/C [30]: 6.21%
viability, T/C [31]: 5.25%
viability, T/C [18]: 23.6%
viability, T/C [19]: 20.2%
viability, T/C [20]: 14.4%
viability, T/C [21]: 10%
viability, T/C [32]: 7.67%
viability, T/C [33]: 6.46%
viability, T/C [22]: 17.9%
viability, T/C [23]: 15.5%
viability, T/C [24]: 11.4%
viability, T/C [25]: 9.92%
viability, T/C [34]: 6.96%
viability, T/C [35]: 5.12%

pIC50 (curve of compound): 6.70 and 6.77
Structure (SMILES): Cn1ncc(Cl)c1-c1cc(C(=O)NC(CN)Cc2cccc(F)c2)sc1Cl (stereo not given)
viability, T/C (compound 0.0316 µM): 90% and 71.9%
viability, T/C (compound 0.1 µM): 64.6% and 67%
viability, T/C (compound 0.316 µM): 43% and 30.5%
viability, T/C (compound 1 µM): 10.9% and 16.7%
viability, T/C (compound 3.16 µM): 7.08% and 7.12%
viability, T/C (compound 10 µM): 0.13% and 0.32%
